Source: patent publication US20260183321A1, “TREATMENT OF CORONAVIRUS INFECTIONS WITH ANTIMICROBIAL PHOSPHOLIPID COMPOSITIONS” (NATIONAL JEWISH HEALTH, priority 2022, published 2026)

What was measured:
[1] = system: SARS-CoV-2 variant, B.1.351; assay type: cell-based
[2] = system: B.1.617.2 (delta variant); assay type: cell-based, SARS-CoV-2; conditions: healthy control subjects n=4, m.o.i. 0.1, 48 hrs; 10 mg/ml POPG, 4 mg/ml PI, prophylactic
[3] = system: B1.1.529 (omicron variant); assay type: cell-based, SARS-CoV-2; conditions: healthy control subjects n=4, m.o.i. 0.1, 48 Hr; 10 mg/ml POPG, 4 mg/ml PI, prophylactic

## CCCCCCCC/C=C\CCCCCCCC(=O)O[C@H](COC(=O)CCCCCCCCCCCCCCC)COP(=O)(O)OCC(O)CO (stereo partly drawn) [POPG, palmitoyl-oleoyl-phosphatidylglycerol]
[1]
  attenuation of B.1.351 replication: 50%
[2]
  B.1.617.2 (delta variant) replication: inhibited
[3]
  B.1.1.529 (Omicron variant) replication: inhibited

## phosphatidylinositol [PI]
[1]
  attenuation of B.1.351 replication: 70%
[2]
  B.1.617.2 (delta variant) replication: inhibited
[3]
  B.1.1.529 (Omicron variant) replication: inhibited
